Laboratory results published in patent publication US12187729B2, “Compounds having PDE9A inhibitory activity, and pharmaceutical uses thereof” (KOREA RESEARCH INSTITUTE OF CHEMICAL TECHNOLOGY, priority 2018, dated 2025).

The compounds below were run against PDE9A (Homo sapiens (Human), UniProt O76083) (assay: PDE9A inhibitory activity, fluorescence polarization assay (IMAP-FP screening express kit)). Settings: enzyme PDE9A 5 ng/ml, Fl-cGMP substrate 100 nM, room temperature 1 hour.
PDE9A, sequence (O76083 whole entry): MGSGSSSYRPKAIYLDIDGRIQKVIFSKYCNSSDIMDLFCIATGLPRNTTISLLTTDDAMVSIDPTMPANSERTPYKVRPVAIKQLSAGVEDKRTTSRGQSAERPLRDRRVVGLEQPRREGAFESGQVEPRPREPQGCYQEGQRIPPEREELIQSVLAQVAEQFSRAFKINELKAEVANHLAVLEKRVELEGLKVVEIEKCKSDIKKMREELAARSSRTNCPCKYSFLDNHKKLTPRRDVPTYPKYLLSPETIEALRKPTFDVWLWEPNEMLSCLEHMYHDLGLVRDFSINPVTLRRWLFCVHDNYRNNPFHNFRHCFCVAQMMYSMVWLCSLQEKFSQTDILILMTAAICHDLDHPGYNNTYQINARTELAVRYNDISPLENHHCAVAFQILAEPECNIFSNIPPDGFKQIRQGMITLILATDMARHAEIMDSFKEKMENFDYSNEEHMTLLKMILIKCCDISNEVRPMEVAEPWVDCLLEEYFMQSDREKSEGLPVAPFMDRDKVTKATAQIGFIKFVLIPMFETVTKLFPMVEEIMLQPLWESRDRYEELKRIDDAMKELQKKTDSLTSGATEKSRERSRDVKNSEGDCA
Type: biochemical
Method: The inhibitory activity of the representative compounds according to the present invention against phosphodiesterase 9A was tested based on the polarization assay (IMAP-FP screening express kit) provided by MDS (MDS Analytical Technologies, Sunyvale, CA, USA). As a buffer solution, a reaction solution (a reaction solution containing 0.01% Tween 20 provided by MDS was diluted 5 times, then 5 mM DTT is added) and a polarization detection solution (binding solution A and B provided by MDS were mixed at a ratio of 3:1 and IMAP binding reagent 1/600 was added) were prepared. 100 μM of the substrate (Fl-cGMP substrate; MDS) and 3.6 μg/ml of the enzyme PDE9A (ab54113; abeam) were prepared. 3.6 μg/ml PDE9A and 100 μM substrate were diluted to 20 ng/ml (final reaction concentration: 5 ng/ml) and 400 nM (final reaction concentration: 100 nM), respectively. The buffer solution used for all dilution and preparation processes was 1× reaction solution with 1 mM DTT added, and the polarization detection solution was used to induce polarization at the end.
The prepared samples were dispensed on black microplates (Multiwell 384 well plates, #3573, Corning Life Sciences, Lowell, MA, USA) using a 16-channel pipette (multi 16-channel, Finnpipette, Thermo Scientific, Essex, UK). The total reaction volume per well is 20 μl. At this time, 10 μl of 2% DMSO, 5 μl of substrate solution, and 5 μl of reaction solution were used as a negative control, and 10 μl of 2% DMSO, 5 μl of substrate solution, and 5 μl of PDE9A solution were used as a positive control. As the experimental group, 10 μl of the compound prepared in Example, 5 μl of the substrate solution, and 5 μl of the PDE9A solution were used. After pretreatment between the compound and the enzyme was performed for about […] before the enzyme-substrate reaction, 5 μl of cGMP was added to induce the enzyme reaction. During the reaction, each compound, enzyme, and substrate occupied 50%, 25%, and 25% of the total volume, respectively, and they were prepared at high concentrations of 2, 4, and 4 times, respectively, immediately before addition. After the enzymatic reaction, it was shaken lightly for 1 minute and the enzyme reaction was induced at room temperature for 1 hour. Then, 60 μl of a polarization detection solution prepared in advance was added to induce polarization.
Nanoparticles composed of trivalent metal ions are mixed in the fluorescence detection solution, which combines with phosphoric acid expose by enzymatic reaction to increase the molecular weight and induce polarization. After leaving for 2 hours at room temperature, the polarization (Fluorescence Polarization, FP) value was measured using a multilabel counter (Envision, PerkinElmer, Turku, Finland) (emission wavelength: P-535 nm, S-535 nm, excitation wavelength: 480 nm), and the result was expressed as an IC50 value, which is the concentration of the compound that inhibited PDE9A by 50% in vitro (Table 2).
`CCSc1nnc(NC(=O)CSc2nc3c(cnn3C3CCSCC3)c(=O)[nH]2)s1` [Example 29, N-(5-(ethylthio)-1,3,4-thiadiazol-2-yl)-2-((4-oxo-1-(tetrahydro-2H-thiopyran-4-yl)-4,5-dihydro-1H-pyrazolo[3,4-d]pyrimidin-6-yl)thio)acetamide] was tested, and the IC50 was 0.3 nM. Work on `CCc1nnc(NC(=O)CSc2nc3c(cnn3-c3ccccc3)c(=O)[nH]2)s1` [Example 5, N-(5-ethyl-1,3,4-thiadiazol-2-yl)-2-((4-oxo-1-phenyl-4,5-dihydro-1H-pyrazolo[3,4-d]pyrimidin-6-yl)thio)acetamide] yielded an IC50 of 180 nM. With `CCSc1nnc(NC(=O)CSc2nc3c(cnn3C3CCOCC3)c(=O)[nH]2)s1` [Example 27, N-(5-(ethylthio)-1,3,4-thiadiazol-2-yl)-2-((4-oxo-1-(tetrahydro-2H-pyran-4-yl)-4,5-dihydro-1H-pyrazolo[3,4-d]pyrimidin-6-yl)thio)acetamide] the IC50 was 0.5 nM. With `O=C(CSc1nc2c(cnn2C2CCOCC2)c(=O)[nH]1)Nc1nnc(Br)s1` [Example 33, N-(5-bromo-1,3,4-thiadiazol-2-yl)-2-((4-oxo-1-(tetrahydro-2H-pyran-4-yl)-4,5-dihydro-1H-pyrazolo[3,4-d]pyrimidin-6-yl)thio)acetamide] the IC50 was 0.4 nM. `O=C(CSc1nc2c(cnn2-c2ccccc2)c(=O)[nH]1)Nc1nnc(SCc2ccc(Cl)cc2)s1` [Example 8] showed an IC50 of 19 nM. Work on `Cc1nnc(NC(=O)C(C)Sc2nc3c(cnn3-c3ccccc3)c(=O)[nH]2)s1` (centres unmarked) [Example 10, N-(5-methyl-1,3,4-thiadiazol-2-yl)-2-((4-oxo-1-phenyl-4,5-dihydro-1H-pyrazolo[3,4-d]pyrimidin-6-yl)thio)propanamide] yielded an IC50 of 150 nM. “N-(5-(methylthio)-1,3,4-thiadiazol-2-yl)-2-((4-oxo-1-phenyl-4,5-dihydro-1H-pyrazolo[3,4-d]pyrimidin-6-yl)thio)acetamide [Example 13]” gave an IC50 of 29 nM. With `O=C(CSc1nc2c(cnn2C2CCC(F)(F)CC2)c(=O)[nH]1)Nc1nnc(Cl)s1` [Example 1, 2-((1-(4,4-difluorocyclohexyl)-4-oxo-4,5-dihydro-1H-pyrazolo[3,4-d]pyrimidin-6-yl)thio)-N-(5-chloro-1,3,4-thiadiazol-2-yl)acetamide] the IC50 was 0.4 nM. `CCSc1nnc(NC(=O)C(C)Sc2nc3c(cnn3C3CCOCC3)c(=O)[nH]2)s1` (centres unmarked) [Example 45, N-(5-(ethylthio)-1,3,4-thiadiazol-2-yl)-2-((4-oxo-1-(tetrahydro-2H-pyran-4-yl)-4,5-dihydro-1H-pyrazolo[3,4-d]pyrimidin-6-yl)thio)propanamide] gave an IC50 of 0.1 nM. `CC(Sc1nc2c(cnn2C2CCOCC2)c(=O)[nH]1)C(=O)Nc1nnc(Br)s1` (centres unmarked) [Example 46, N-(5-bromo-1,3,4-thiadiazol-2-yl)-2-((4-oxo-1-(tetrahydro-2H-pyran-4-yl)-4,5-dihydro-1H-pyrazolo[3,4-d]pyrimidin-6-yl)thio)propanamide] gave an IC50 of 0.2 nM. Compound `O=C(CSc1nc2c(cnn2-c2ccccc2)c(=O)[nH]1)Nc1nnc(Cl)s1` [Example 30, N-(5-chloro-1,3,4-thiadiazol-2-yl)-2-((4-oxo-1-phenyl-4,5-dihydro-1H-pyrazolo[3,4-d]pyrimidin-6-yl)thio)acetamide] has an IC50 of 18 nM. Compound `CC(C)n1ncc2c(=O)[nH]c(SCC(=O)Nc3nnc(Br)s3)nc21` [Example 38, N-(5-bromo-1,3,4-thiadiazol-2-yl)-2-((1-isopropyl-4-oxo-4,5-dihydro-1H-pyrazolo[3,4-d]pyrimidin-6-yl)thio)acetamide] has an IC50 of 3 nM. For `CC(Sc1nc2c(cnn2C2CCC(F)(F)CC2)c(=O)[nH]1)C(=O)Nc1nnc(Cl)s1` (centres unmarked) [Example 48, N-(5-chloro-1,3,4-thiadiazol-2-yl)-2-((1-(4,4-difluorocyclohexyl)-4-oxo-4,5-dihydro-1H-pyrazolo[3,4-d]pyrimidin-6-yl)thio)propanamide], the IC50 was 0.3 nM. For `CC(C)n1ncc2c(=O)[nH]c(SCC(=O)Nc3nnc(Cl)s3)nc21` [Example 43, N-(5-chloro-1,3,4-thiadiazol-2-yl)-2-((1-isopropyl-4-oxo-4.5-dihydro-1H-pyrazolo[3,4-d]pyrimidin-6-yl)thio)acetamide], the IC50 was 3 nM. Work on `O=C(CSc1nc2c(cnn2-c2ccccc2)c(=O)[nH]1)Nc1nnc(Br)s1` [Example 7, N-(5-bromo-1,3,4-thiadiazol-2-yl)-2-((4-oxo-1-phenyl-4,5-dihydro-1H-pyrazolo[3,4-d]pyrimidin-6-yl)thio)acetamide] yielded an IC50 of 12 nM. `CCSc1nnc(NC(=O)CSc2nc3c(cnn3-c3ccccc3)c(=O)[nH]2)s1` [Example 2, N-(5-(ethylthio)-1,3,4-thiadiazol-2-yl)-2-((4-oxo-1-phenyl-4,5-dihydro-1H-pyrazolo[3,4-d]pyrimidin-6-yl)thio)acetamide] was tested, and the IC50 was 10 nM. Work on `CCSc1nnc(NC(=O)CSc2nc3c(cnn3C(C)C)c(=O)[nH]2)s1` [Example 37, N-(5-(ethylthio)-1,3,4-thiadiazol-2-yl)-2-((1-isopropyl-4-oxo-4,5-dihydro-1H-pyrazolo[3,4-d]pyrimidin-6-yl)thio)acetamide] yielded an IC50 of 1 nM. Work on `CCSc1nnc(NC(=O)CSc2nc3c(cnn3-c3ccc(F)cc3)c(=O)[nH]2)s1` [Example 16, N-(5-(ethylthio)-1,3,4-thiadiazol-2-yl)-2-((1-(4-fluorophenyl)-4-oxo-4,5-dihydro-1H-pyrazolo[3,4-d]pyrimidin-6-yl)thio)acetamide] yielded an IC50 of 27 nM. In the case of `O=C(CSc1nc2c(cnn2C2CC2)c(=O)[nH]1)Nc1nnc(Br)s1` [Example 41, N-(5-bromo-1,3,4-thiadiazol-2-yl)-2-((1-cyclopropyl-4-oxo-4,5-dihydro-1H-pyrazolo[3,4-d]pyrimidin-6-yl)thio)acetamide], the IC50 is reported as 28 nM. For `CCSc1nnc(NC(=O)C(C)Sc2nc3c(cnn3-c3ccccc3)c(=O)[nH]2)s1` (centres unmarked) [Example 11, N-(5-(ethylthio)-1,3,4-thiadiazol-2-yl)-2-((4-oxo-1-phenyl-4,5-dihydro-1H-pyrazolo[3,4-d]pyrimidin-6-yl)thio)propanamide], the IC50 was 10 nM. With `O=C(CSc1nc2c(cnn2C2CCOCC2)c(=O)[nH]1)Nc1nnc(Cl)s1` [Example 36, N-(5-chloro-1,3,4-thiadiazol-2-yl)-2-((4-oxo-1-(tetrahydro-2H-pyran-4-yl)-4,5-dihydro-1H-pyrazolo[3,4-d]pyrimidin-6-yl)thio)acetamide] the IC50 was 0.7 nM. `CC(Sc1nc2c(cnn2C2CCC(F)(F)CC2)c(=O)[nH]1)C(=O)Nc1nnc(Br)s1` (centres unmarked) [Example 31, 2-((1-(4,4-difluorocyclohexyl)-4-oxo-4,5-dihydro-1H-pyrazolo[3,4-d]pyrimidin-6-yl)thio)-N-(5-bromo-1,3,4-thiadiazol-2-yl)propanamide] showed an IC50 of 0.1 nM. `Cc1ccc(CSc2nnc(NC(=O)CSc3nc4c(cnn4-c4ccccc4)c(=O)[nH]3)s2)cc1` [Example 9] gave an IC50 of 15 nM.
